Test results: patent publication US20260053811A1, “METHODS OF TREATING HYPERTENSION IN OBESE SUBJECTS” (Mineralys Therapeutics, Inc., priority 2022, published 2026)
Marks after values point to notes of the source that are not given here.

Experiments:
Type in all cases: in vivo, human
plasma renin activity = experiment: Plasma renin activity (PRA) (pharmacodynamic response); settings: for Renin Activity, Mean (SD) Observed / Renin Activity, Mean (SD) Percent Change from Baseline: Part 1; for Renin Activity, Mean Observed / Renin Activity, Mean Percent Change from Baseline: Part 2
From the text: (§1) PK/PD Analysis Set includes all subjects in the SAF who have sufficient data available for the analysis of pharmacokinetic and pharmacodynamic measurements. In the analyses based on PKPD, subjects will be analyzed according to the actual treatment received.

hypertensive subjects [1] = experiment: Serum potassium; settings: for Increase in potassium levels relative to baseline: Week 8; for Individuals with increased serum K+, Mild 5.6-6.0 mMol/L (number) / Individuals with increased serum K+, Mild 5.6-6.0 mMol/L (percent) / Individuals with increased serum K+, Moderate 6.1-6.5 mMol/L / Individuals with increased serum K+, Severe >6.5 mMol/L: during treatment
From the text: (§2) Safety endpoints of this study are: • (a) Incidence and severity of all spontaneously reported adverse events (AEs) • (b) Changes in vital signs (standing SBP, standing DBP, body temperature, heart rate, and respiratory rate) • (c) Changes in electrocardiogram parameters (including cardiac intervals: PR, QRS, QT, and corrected QT interval using Fridericia's formula) • (d) Changes in clinical laboratory assessments (hematology, chemistry, coagulation, and urinalysis) • (e) Change in office-measured SBP from Study Week 8 (end-of-treatment period to end of follow up (i.e. end of Study Week 12 for Part 1 and end of Study 10 for Part 2).
The Safety Analysis Set includes all enrolled subjects who received at least one dose of study treatment (MLS-101 or placebo). In analyses performed on the Safety Analysis Set, subjects will be analyzed according to their actual treatment received.

hypertensive subjects [2] = experiment: Clinical laboratory evaluations (chemistry incl. serum creatinine, hematology, coagulation, urinalysis)
From the text: as §2

hypertensive subjects [3] = experiment: ACTH stimulation testing / adrenocortical insufficiency
Experimental: 11-deoxycorticosterone levels were unaffected. […] Due to supply chain disruption, the ability to perform ACTH stimulation testing was limited during the first part of the trial. However, the majority of subjects in Part 2 dosed with 100 mg QD, the maximum dose tested, had ACTH-stimulation testing performed at Baseline and after 8 weeks of treatment.

11-deoxycortisol = experiment: Plasma 11-deoxycortisol (pharmacodynamic response); settings: for 11-Deoxycortisol, Mean (SD) Observed / 11-Deoxycortisol, Mean (SD) Percent Change from Baseline: Part 1; for 11-Deoxycortisol, Mean Observed / 11-Deoxycortisol, Mean Percent Change from Baseline: Part 2
From the text: as §1

[4] = active treatment cohorts, Parts 1 and 2

## CC(=O)N[C@H]1CC[C@H](NC(=O)CN2CCN(c3nncc(-c4ccc(C)cc4)n3)CC2)CC1 [Compound A HBr]
Plasma renin activity; Wk 4, 12.5 mg BID
  Renin Activity, Mean (SD) Observed: 5.989 (11.272) μg/L/hr
  Renin Activity, Mean (SD) Percent Change from Baseline: 838.89 (2411.4) %
Plasma renin activity; Wk 4, 12.5 mg QD
  Renin Activity, Mean (SD) Observed: 1.804 (3.565) μg/L/hr
  Renin Activity, Mean (SD) Percent Change from Baseline: 85.09 (291.65) %
Plasma renin activity; Wk 4, 25 mg BID
  Renin Activity, Mean (SD) Observed: 2.860 (4.219) μg/L/hr
  Renin Activity, Mean (SD) Percent Change from Baseline: 344.07 (480.75) %
Plasma renin activity; Wk 4, 50 mg QD
  Renin Activity, Mean (SD) Observed: 3.940 (9.162) μg/L/hr
  Renin Activity, Mean (SD) Percent Change from Baseline: 359.69 (888.86) %
Plasma renin activity; Wk 4, 100 mg QD
  Renin Activity, Mean (SD) Observed: 3.870 (6.308) μg/L/hr
  Renin Activity, Mean (SD) Percent Change from Baseline: 489.18 (974.60) %
  Renin Activity, Mean Observed: 12.642 µg/L/h
  Renin Activity, Mean Percent Change from Baseline: 811.54%
Plasma renin activity; Wk 12, 12.5 mg BID
  Renin Activity, Mean (SD) Observed: 5.118 (11.751) μg/L/hr
  Renin Activity, Mean (SD) Percent Change from Baseline: 212.37 (402.15) %
Plasma renin activity; Wk 12, 12.5 mg QD
  Renin Activity, Mean (SD) Observed: 2.429 (5.048) μg/L/hr
  Renin Activity, Mean (SD) Percent Change from Baseline: 137.45 (279.23) %
Plasma renin activity; Wk 12, 25 mg BID
  Renin Activity, Mean (SD) Observed: 2.898 (8.323) μg/L/hr
  Renin Activity, Mean (SD) Percent Change from Baseline: 198.91 (423.17) %
Plasma renin activity; Wk 12, 50 mg QD
  Renin Activity, Mean (SD) Observed: 3.374 (7.008) μg/L/hr
  Renin Activity, Mean (SD) Percent Change from Baseline: 400.07 (808.60) %
Plasma renin activity; Wk 12, 100 mg QD
  Renin Activity, Mean (SD) Observed: 1.653 (2.830) μg/L/hr
  Renin Activity, Mean (SD) Percent Change from Baseline: 94.66 (221.58) %
Plasma renin activity; Wk 10, 100 mg QD
  Renin Activity, Mean Observed: 7.602 µg/L/h
  Renin Activity, Mean Percent Change from Baseline: 192.62%
Plasma renin activity; across doses
  Plasma renin activity, pharmacodynamic response: commensurate increase in plasma renin activity
Plasma renin activity; irrespective of dose and baseline PRA, highest at Week 4
  Renin activity, percent change from baseline: increased in all subjects treated with lorundrostat
Hypertensive subjects [1]; 25 mg BID, Part 1
  Increase in potassium levels relative to baseline: 0.341 mmol/L
Hypertensive subjects [1]; 50 mg QD (n = 28)
  Serum K+ Mean Change from Baseline to Wk 8: +0.25 mmol/L
  Individuals with increased serum K+, Mild 5.6-6.0 mMol/L (number): 1
  Individuals with increased serum K+, Mild 5.6-6.0 mMol/L (percent): (10.7%)
  Individuals with increased serum K+, Moderate 6.1-6.5 mMol/L: 0
Hypertensive subjects [1]; 100 mg QD (n = 61)
  Serum K+ Mean Change from Baseline to Wk 8: +0.29 mmol/L
  Individuals with increased serum K+, Mild 5.6-6.0 mMol/L (number): 8
  Individuals with increased serum K+, Mild 5.6-6.0 mMol/L (percent): (13.1%)
  Individuals with increased serum K+, Moderate 6.1-6.5 mMol/L: 1 (1.6%)
  Individuals with increased serum K+, Severe >6.5 mMol/L: 1 (1.6%)
Hypertensive subjects [1]; 100 mg QD, Part 1
  Number of individuals with verified or multiple increased serum K+ 5.2-5.5 mMol/L: 5
  Number of individuals with verified or multiple increased serum K+ 5.6-6.0 mMol/L: 3
  Number of individuals with verified or multiple increased serum K+ 6.1-6.5 mMol/L: 0
  Percent of individuals with verified or multiple increased serum K+ 5.2-5.5 mMol/L: (18.5%)
  Percent of individuals with verified or multiple increased serum K+ 5.6-6.0 mMol/L: (10.7%)
Hypertensive subjects [1]; 100 mg QD, Part 1, isolated incident not verified by repeat measurement
  Number of individuals with increased serum K+ >6.5 mMol/L: 1*
Hypertensive subjects [1]; 100 mg QD, Part 2
  Number of individuals with verified or multiple increased serum K+ 5.2-5.5 mMol/L: 1
  Number of individuals with verified or multiple increased serum K+ 5.6-6.0 mMol/L: 0
  Number of individuals with verified or multiple increased serum K+ 6.1-6.5 mMol/L: 0
  Number of individuals with verified or multiple increased serum K+ >6.5 mMol/L: 0
  Percent of individuals with verified or multiple increased serum K+ 5.2-5.5 mMol/L: (4%)
  Increase in potassium levels relative to baseline: 0.208 mmol/L
Hypertensive subjects [1]; 100 mg QD, Pooled
  Number of individuals with verified or multiple increased serum K+ 5.2-5.5 mMol/L: 6
  Number of individuals with verified or multiple increased serum K+ 5.6-6.0 mMol/L: 3
  Number of individuals with verified or multiple increased serum K+ 6.1-6.5 mMol/L: 0
  Number of individuals with verified or multiple increased serum K+ >6.5 mMol/L: 0
  Percent of individuals with verified or multiple increased serum K+ 5.2-5.5 mMol/L: (10.3%)
  Percent of individuals with verified or multiple increased serum K+ 5.6-6.0 mMol/L: (5.2%)
Hypertensive subjects [1]; All Active (n = 163)
  Individuals with increased serum K+, Mild 5.6-6.0 mMol/L (number): 16
  Individuals with increased serum K+, Mild 5.6-6.0 mMol/L (percent): (9.8%)
  Individuals with increased serum K+, Moderate 6.1-6.5 mMol/L: 4 (2.5%)
  Individuals with increased serum K+, Severe >6.5 mMol/L: 2*
Hypertensive subjects [1]; Part 1 (N 26)
  Change in group mean serum potassium (K+), Mean: +0.50 mMol/L
Hypertensive subjects [1]; Part 1, N 26*
  Change in group mean serum potassium (K+), Mean: +0.50 mMol/L
Hypertensive subjects [1]; Part 2 (N 31)
  Change in group mean serum potassium (K+), Mean: +0.23 mMol/L
Hypertensive subjects [1]; Part 2, N 31
  Change in group mean serum potassium (K+), Mean: +0.23 mMol/L
Hypertensive subjects [1]; Parts 1 and 2, listed as lorundrostat
  Subjects with transient elevated serum potassium greater than 6.0 mmol/L: seven
Hypertensive subjects [1]; Pooled (N 57)
  Change in group mean serum potassium (K+), Mean: +0.35 mMol/L
Hypertensive subjects [1]; Pooled, N 57
  Change in group mean serum potassium (K+), Mean: +0.35 mMol/L
Hypertensive subjects [1]; [4]
  Serum potassium levels compared with placebo: increased
Hypertensive subjects [2]; Part 1 or Part 2
  Clinical laboratory parameters (chemistry, hematology, coagulation, urinalysis), change from baseline to Week 8: no meaningful changes
Hypertensive subjects [2]; [4]
  Serum creatinine levels compared with placebo: increased
Hypertensive subjects [3]; during the trial, listed as lorundrostat
  Adrenocortical insufficiency: no adrenocortical insufficiency occurred
Hypertensive subjects [3]; majority of Part 2 subjects, 100 mg QD, Baseline and after 8 weeks
  ACTH-stimulation results: no individuals with abnormal ACTH-stimulation results
11-deoxycortisol; Wk 4, 12.5 mg BID
  11-Deoxycortisol, Mean (SD) Observed: 24.89 (18.99) ng/dL
  11-Deoxycortisol, Mean (SD) Percent Change from Baseline: 22.56 (118.56) %
11-deoxycortisol; Wk 4, 12.5 mg QD
  11-Deoxycortisol, Mean (SD) Observed: 24.21 (19.92) ng/dL
  11-Deoxycortisol, Mean (SD) Percent Change from Baseline: 10.07 (76.22) %
11-deoxycortisol; Wk 4, 25 mg BID
  11-Deoxycortisol, Mean (SD) Observed: 35.23 (33.00) ng/dL
  11-Deoxycortisol, Mean (SD) Percent Change from Baseline: 40.12 (118.32) %
11-deoxycortisol; Wk 4, 50 mg QD
  11-Deoxycortisol, Mean (SD) Observed: 27.15 (13.97) ng/dL
  11-Deoxycortisol, Mean (SD) Percent Change from Baseline: 10.80 (61.95) %
11-deoxycortisol; Wk 4, 100 mg QD
  11-Deoxycortisol, Mean (SD) Observed: 29.29 (23.99) ng/dL
  11-Deoxycortisol, Mean (SD) Percent Change from Baseline: 9.43 (60.26) %
  11-Deoxycortisol, Mean Observed: 35.96 ng/dL
  11-Deoxycortisol, Mean Percent Change from Baseline: 22.95%
11-deoxycortisol; Wk 12, 12.5 mg BID
  11-Deoxycortisol, Mean (SD) Observed: 20.94 (10.27) ng/dL
  11-Deoxycortisol, Mean (SD) Percent Change from Baseline: −14.58 (33.13) %
11-deoxycortisol; Wk 12, 12.5 mg QD
  11-Deoxycortisol, Mean (SD) Observed: 31.56 (29.77) ng/dL
  11-Deoxycortisol, Mean (SD) Percent Change from Baseline: 58.62 (122.14) %
11-deoxycortisol; Wk 12, 25 mg BID
  11-Deoxycortisol, Mean (SD) Observed: 31.55 (26.82) ng/dL
  11-Deoxycortisol, Mean (SD) Percent Change from Baseline: 26.81 (72.59) %
11-deoxycortisol; Wk 12, 50 mg QD
  11-Deoxycortisol, Mean (SD) Observed: 26.15 (18.89) ng/dL
  11-Deoxycortisol, Mean (SD) Percent Change from Baseline: 9.25 (111.16) %
11-deoxycortisol; Wk 12, 100 mg QD
  11-Deoxycortisol, Mean (SD) Observed: 31.17 (25.98) ng/dL
  11-Deoxycortisol, Mean (SD) Percent Change from Baseline: 22.05 (64.71) %
11-deoxycortisol; Part 1 active treatment arms, Week 4
  11-deoxycortisol compared with placebo: Transient increases
11-deoxycortisol; Wk 10, 100 mg QD
  11-Deoxycortisol, Mean Observed: 27.60 ng/dL
  11-Deoxycortisol, Mean Percent Change from Baseline: −2.13%
